In patent US9975921B2, “Crystal forms of anamorelin” (Helsinn Healthcare SA, priority 2004, dated 2018):

Legend:
Type in all cases: physicochemical
[1] = Hygroscopicity study: Thermogravimetric analysis (TGA); details: before DVS
Method: (§1) The hygroscopicity of (3R)-1-(2-methylalanyl-D-tryptophyl)-3-(phenylmethyl)-3-piperidinecarboxylic acid 1,2,2-trimethylhydrazide form C produced by the method disclosed in Example 4 (monohydrate) was evaluated using Dynamic Vapor Sorption analysis (DVS) and Thermogravimetric analysis (TGA). Dynamic Vapor Sorption Analysis (DVS)
The samples were analyzed using a Mettler 851e thermogravimetric analyzer. Samples were weighed into a crucible. The samples were heated from 30° C. to 300.0° C. ramped at 10.00° C./min with an air purge.

[2] = Hygroscopicity study: Dynamic Vapor Sorption analysis (DVS)
Method: as §1
The samples were analyzed using a Hiden IGAsorp vapor sorption analyzer. Each sample was placed in a sample pan and exposed to drying at 25° C. in a dry nitrogen stream for two hours. This assured that the samples being analyzed were at a constant weight prior to the start of the analysis. The samples were then analyzed at 25.0° C. The adsorption isotherm was conducted between: 10-90% RH with a step size of 10%. The desorption isotherm was conducted between 85-0% RH with a step size 10%. After the isotherms were complete, each of the samples were heated to 125° C. until the weight loss curve reached an asymptote or for 4 hours.

[3] = 12 month stability study: physical description (TM-106)
Method: (§2) Crystalline (3R)-1-(2-methylalanyl-D-tryptophyl)-3-(phenylmethyl)-3-piperidinecarboxylic acid 1,2,2-trimnethylhydrazide was placed in double plastic bags, closed under a nitrogen blanket, and placed inside a small fiberboard container, the physical appearance, water content, purity and crystallinity were tested every three months for a period of 12 months under a variety of conditions.

[4] = 12 month stability study: HPLC weight % (TM-808)
Method: as §2
(§3) The purity and water content of (3R)-1-(2-methylalanyl-D-tryptophyl)-3-(phenylmethyl)-3-piperidinecarboxylic acid 1,2,2-trimethylhydrazide was analyzed using HPLC and KF respectively before, during, and after the 12 month stability study.

[5] = 12 month stability study: water content by Karl Fischer; details: 1 month
[6] = 12 month stability study: HPLC area % (TM-808)
Method: as §2, §3

[7] = 12 month stability study: crystallinity using optical microscopy (USP <695>)
Method: as §2

[8] = 12 month stability study: water content by Karl Fischer
Method: as §2, §3

[9] = 12 month stability study: DSC (USP <891>)
Method: as §2

## CN(C)N(C)C(=O)[C@@]1(Cc2ccccc2)CCCN(C(=O)[C@@H](Cc2c[nH]c3ccccc23)NC(=O)C(C)(C)N)C1 [Form C monohydrate, (3R)-1-(2-methylalanyl-D-tryptophyl)-3-(phenylmethyl)-3-piperidinecarboxylic acid 1,2,2-trimethylhydrazide]
[1]
  bound water initially contained: 2.5 % by weight
[2]; DVS
  relative humidity above which the dihydrate was formed: > 35%
[2]; adsorption isotherm, 25.0° C., at 35% RH
  water contained after steady adsorption: 6 % by weight
[2]; adsorption isotherm, up to 90% RH
  additional adsorption: No other significant additional adsorption
[2]; desorption isotherm
  relative humidity down to which the dihydrate form was observed: 30 % RH

## CN(C)N(C)C(=O)[C@@]1(Cc2ccccc2)CCCN(C(=O)[C@@H](Cc2c[nH]c3ccccc23)NC(=O)C(C)(C)N)C1 [crystalline anamorelin, (3R)-1-(2-methylalanyl-D-tryptophyl)-3-(phenylmethyl)-3-piperidinecarboxylic acid 1,2,2-trimethylhydrazide]
[3]; 5° C., 1 month
  Physical Description: Off-white
[3]; 5° C., 3 months
  Physical Description: Off-white
[3]; 5° C., 6 months
  Physical Description: Off-white
[3]; 5° C., 9 months
  Physical Description: White
[3]; 5° C., 12 months
  Physical Description: Off-white
[3]; 25° C. 60% RH, 1 month
  Physical Description: Off-white
[3]; 25° C. 60% RH, 3 months
  Physical Description: Off-white
[3]; 25° C. 60% RH, 6 months
  Physical Description: Off-white
[3]; 25° C. 60% RH, 9 months
  Physical Description: Off-white
[3]; 25° C. 60% RH, 12 months
  Physical Description: Off-white
[3]; 40° C. 60% RH, 1 month
  Physical Description: Off-white
[3]; 40° C. 60% RH, 3 months
  Physical Description: Off-white
[3]; 40° C. 60% RH, 6 months
  Physical Description: Off-white
[3]; Initial
  Physical Description: Off-white
[4]; 5° C., 1 month
  HPLC Weight %: 92.0%
[4]; 5° C., 3 months
  HPLC Weight %: 93.2%
[4]; 5° C., 6 months
  HPLC Weight %: 93.9%
[4]; 5° C., 9 months
  HPLC Weight %: 94.5%
[4]; 5° C., 12 months
  HPLC Weight %: 94.3%
[4]; 25° C. 60% RH, 1 month
  HPLC Weight %: 92.1%
[4]; 25° C. 60% RH, 3 months
  HPLC Weight %: 93.2%
[4]; 25° C. 60% RH, 6 months
  HPLC Weight %: 94.2%
[4]; 25° C. 60% RH, 9 months
  HPLC Weight %: 94.6%
[4]; 25° C. 60% RH, 12 months
  HPLC Weight %: 94.2%
[4]; 40° C. 75% RH, 1 month
  HPLC Weight %: 91.8%
[4]; 40° C. 75% RH, 3 months
  HPLC Weight %: 93.0%
[4]; 40° C. 75% RH, 6 months
  HPLC Weight %: 94.1%
[4]; Initial
  HPLC Weight %: 99.8%
[5]; 5° C.
  Water content by Karl Fisher: 5.3%
[5]; 25° C. 60% RH
  Water content by Karl Fisher: 5.8%
[5]; 40° C. 75% RH
  Water content by Karl Fisher: 6.1%
[6]; 5° C., 1 month
  HPLC Area %: 99.7%
[6]; 5° C., 3 months
  HPLC Area %: 99.7%
[6]; 5° C., 6 months
  HPLC Area %: 99.7%
[6]; 5° C., 9 months
  HPLC Area %: 99.8%
[6]; 5° C., 12 months
  HPLC Area %: 99.7%
[6]; 25° C. 60% RH, 1 month
  HPLC Area %: 99.7%
[6]; 25° C. 60% RH, 3 months
  HPLC Area %: 99.7%
[6]; 25° C. 60% RH, 6 months
  HPLC Area %: 99.7%
[6]; 25° C. 60% RH, 9 months
  HPLC Area %: 99.8%
[6]; 25° C. 60% RH, 12 months
  HPLC Area %: 99.7%
[6]; 40° C. 75% RH, 1 month
  HPLC Area %: 99.7%
[6]; 40° C. 75% RH, 3 months
  HPLC Area %: 99.7%
[6]; 40° C. 75% RH, 6 months
  HPLC Area %: 99.7%
[6]; Initial
  HPLC Area %: 99.8%
[6]; after 12 months
  purity: relatively unchanged
[7]; 5° C., 1 month
  Crystallinity using Optical Microscopy: Crystal-
[7]; 5° C., 3 months
  Crystallinity using Optical Microscopy: Crystal-
[7]; 5° C., 6 months
  Crystallinity using Optical Microscopy: Crystal-
[7]; 5° C., 9 months
  Crystallinity using Optical Microscopy: Crystal-
[7]; 5° C., 12 months
  Crystallinity using Optical Microscopy: Crystal-
[7]; 25° C. 60% RH, 1 month
  Crystallinity using Optical Microscopy: Crystal-
[7]; 25° C. 60% RH, 3 months
  Crystallinity using Optical Microscopy: Crystal-
[7]; 25° C. 60% RH, 6 months
  Crystallinity using Optical Microscopy: Crystal-
[7]; 25° C. 60% RH, 9 months
  Crystallinity using Optical Microscopy: Crystal-
[7]; 25° C. 60% RH, 12 months
  Crystallinity using Optical Microscopy: Crystal-
[7]; 40° C. 75% RH, 1 month
  Crystallinity using Optical Microscopy: Crystal-
[7]; 40° C. 75% RH, 3 months
  Crystallinity using Optical Microscopy: Crystal-
[7]; 40° C. 75% RH, 6 months
  Crystallinity using Optical Microscopy: Crystal-
[7]; Initial
  Crystallinity using Optical Microscopy: Crystal-
[8]; 5° C., 3 months
  Water content by Karl Fisher: 6.0%
[8]; 5° C., 6 months
  Water content by Karl Fisher: 5.8%
[8]; 5° C., 9 months
  Water content by Karl Fisher: 5.6%
[8]; 5° C., 12 months
  Water content by Karl Fisher: 6.1%
[8]; 25° C. 60% RH, 3 months
  Water content by Karl Fisher: 6.0%
[8]; 25° C. 60% RH, 6 months
  Water content by Karl Fisher: 5.9%
[8]; 25° C. 60% RH, 9 months
  Water content by Karl Fisher: 5.7%
[8]; 25° C. 60% RH, 12 months
  Water content by Karl Fisher: 5.8%
[8]; 40° C. 75% RH, 3 months
  Water content by Karl Fisher: 6.1%
[8]; 40° C. 75% RH, 6 months
  Water content by Karl Fisher: 5.9%
[8]; after 12 months
  water content (Karl Fischer Analysis): approximately 6%
[9]; 5° C., 3 months
  DSC Onset: 112.1 °C
  DSC Peak: 117.1 °C
[9]; 5° C., 6 months
  DSC Onset: 112.3 °C
  DSC Peak: 116.9 °C
[9]; 25° C. 60% RH, 3 months
  DSC Onset: 112.6 °C
  DSC Peak: 117.7 °C
[9]; 25° C. 60% RH, 6 months
  DSC Onset: 112.5 °C
  DSC Peak: 117 °C
[9]; 40° C. 75% RH, 3 months
  DSC Onset: 112.2 °C
  DSC Peak: 117.5 °C
[9]; 40° C. 75% RH, 6 months
  DSC Onset: 125.5 °C
  DSC Peak: 117.8 °C
[9]; Initial
  DSC Onset: 108.2 °C
  DSC Peak: 112.7 °C
